Test [1] has as its target T1, KRAS G12V GMP-PNP (Homo sapiens, UniProt P01116, G12V).
T1 construct: His-tag (TEV-cleavable) (cleaved yes); made in house; host or cells: E. coli BL21* DE3
Description: STD-NMR screening of the DSI-poised fragment library. Format: binding. The settings on record: STD-NMR hit mark; mixtures of six, 600 μM per ligand, 12 μM KRAS; hit if S/N ratio greater than 5. The method, then: The STD-NMR and [^15N,^1H]-HSQC screening of the DSI-poised fragment library was performed on a Bruker Avance III HD 600 MHz spectrometer equipped with a cryoprobe and SampleJet. […] Analysis was performed in TopSpin 4.1 and CcpNMR 3.1.[28]
The DSI-poised fragment library comprises 890 molecules, designed such that analogues are readily accessible on the market and can be quickly synthesized.

In test [2] the target is T1, KRAS G12V GMP-PNP. Description: Ligand-titrated [15N,1H]-HSQC affinity determination (TITAN line shape analysis). Format: binding. As to the method: A detailed summary for each ligand can be found in the Supporting Information. The NMR data were processed with nmrpipe, and the affinity was analyzed with TITAN.[29]
The amide signals of L6, V7, T74, and G75 were analyzed using the line shape analysis software TITAN.[29] Additionally, the chemical shift perturbation binding curve was analyzed.
MHz spectrometer equipped with a cryoprobe and SampleJet.
4, 5, 9: [15N, 1H]-sofastHSQC experiments were done on a Bruker Ascend console NEO 500 MHz with a prodigy probe head
titrated to ~100 µM KRAS.
spectrometer equipped with a cryoprobe.
Table SI1: Summary of all [1H, 1H] - NOESY spectra measured for all compounds which a NMR2
(1H) [MS] (1H) [MS] [MS] TIME [MS] [MHZ] TIME PER NOESY [H]

Setting [3] is: TITAN analysis of L6, V7, T74, G75 amide signals, no saturation reached, interpret with caution, read-out: KD.

Among the data in PMC12022975, “NMR^2-Based Drug Discovery Pipeline Presented on the Oncogenic Protein KRAS” (Journal of the American Chemical Society, 2025) are STD and Kd values, retold here.

Structures are written as SMILES. Like-named read-outs stand apart in the source and are kept apart here.

Turning to `N=c1sccn1CC(=O)Nc1ccc(F)cc1` [compound 4], on KRAS G12V GMP-PNP [1], the STD result is reported as “√”. On KRAS G12V GMP-PNP [2] (setting [3]), the Kd came to 10 mM. Take `COc1ccc(C)cc1NC(=O)Nn1cnnc1` [compound 6]: on KRAS G12V GMP-PNP [1], the STD result is recorded as “√”. In addition, the Kd on KRAS G12V GMP-PNP [2] (setting [3]) stood at 15 mM. Consider `Nc1ccc(S(=O)(=O)Nc2ccccc2)cc1` [compound 7], for which the STD result on KRAS G12V GMP-PNP [1] is recorded as “√”. Besides, the Kd on KRAS G12V GMP-PNP [2] (setting [3]) was determined as 5.9 mM.

As for `CNCc1cnn(-c2ccccc2)c1` [compound 9], on KRAS G12V GMP-PNP [1], the STD entry was “√”. For the same compound, at KRAS G12V GMP-PNP [2] (setting [3]), the Kd is 3.3 mM. `COc1ccc2sc(N)nc2c1` [compound 10]: the STD entry on KRAS G12V GMP-PNP [1] was “√”. The compound further showed a Kd at KRAS G12V GMP-PNP [2] of 5.9 mM.

As to `CS(=O)(=O)Cc1nc2ccccc2[nH]1` [compound 11], the STD entry on KRAS G12V GMP-PNP [1] was “√”. The same measure, in the same setting: as for `O=C(CN1CCCC1)Nc1cccc(Cl)c1` [compound 12], the entry is “√”; as for `COc1ccc2[nH]cc(CN(C)C)c2c1` [compound 13], “√”. Turning to `Cc1cc2cc[nH]c2cc1C` [compound 14], on KRAS G12V GMP-PNP [2] (setting [3]), the Kd came to 3.2 mM.

Regarding `O=C(O)/C=C/c1c[nH]c2ccccc12` [compound 16], the Kd at KRAS G12V GMP-PNP [2] (setting [3]) was found to be 4.5 mM. On to `c1coc(CNc2nc3ccccc3[nH]2)c1` [fragment 1, C(c1ccco1)Nc1nc(cccc2)c2[nH]1], for which the STD entry at KRAS G12V GMP-PNP [1] was “√”. Moreover, at KRAS G12V GMP-PNP [2] (setting [3]), the Kd amounted to 1.2 mM. On to `Cc1[nH]ncc1CNc1ccccc1F` [fragment 5, Cc1n[nH]cc1CNc(cccc1)c1F], for which the STD entry on KRAS G12V GMP-PNP [1] is “√”. The Kd at KRAS G12V GMP-PNP [2] (setting [3]) was found to be 5.2 mM.
